According to article PMC6269559, “Design, Synthesis and Biological Evaluation of Ketoprofen Conjugated To RGD/NGR for Targeted Cancer Therapy” (Iranian Journal of Pharmaceutical Research : IJPR, 2018):

Experiments:
Assay type in all cases: cell-based
[1] = test system: A2780 (low αVβ3); assay: MTT cytotoxicity, A2780; details: 48 h; for Inhibitory % values, A2780: 100 µM
Description: (§1) In order to evaluate the cytotoxic activity of the synthesis compounds, five cell lines: A2780 (low αVβ3), OVCAR-3 (high αVβ3), SKOV-3 (low CD13), HT-1080 (high CD13) and MCF-7 and fibroblast cell were selected. A2780 and MCF-7 are both cancer cells, but A2780 is […] cell line. Three concentrations of products were prepared and were evaluated after 48 h by using MTT method. Therefore cells cultured in culture media (RPMI1640) at 37 °C under 5% CO2 supplemented with 10% fetal bovine serum (FBS), 100 U/mL penicillin and 100 μg/mL streptomycin. Nearly 10^4 cells were seeded into 96-well plates and were grown for 24 h in incubator. Compounds and doxorubicin added to wells, cells were incubated at 37 °C for 48 h. Cells without any adding of compound were used as negative control, Doxorubicin was used as positive control and DMSO as the solvent of the test compounds. After 48 h, 10 μL of MTT (5 mg/mL in PBS) was added at 37 °C for 4 h. The medium with MTT was removed and 100 μL DMSO was added to each well, cover the plate from light, shake it for 5 min, then optical densities were read at 570 nm with a reference wavelength of 630 nm as background using a spectrophotometer plate reader (Infinite® M200, TECAN).

[2] = test system: OVCAR-3 (high αVβ3); assay: MTT cytotoxicity, OVCAR-3; details: 48 h; for Inhibitory % values, OVCAR3: 100 µM
Description: as §1

[3] = test system: HT-1080 (high CD13); assay: MTT cytotoxicity, HT-1080; details: 48 h; for Inhibitory % values, HT-1080: 100 µM
Description: as §1

[4] = test system: SKOV-3 (low CD13); assay: MTT cytotoxicity, SKOV-3; details: 48 h; for Inhibitory % values, SKOV-3: 100 µM
Description: as §1

[5] = test system: MCF-7; assay: MTT cytotoxicity, MCF-7; details: 48 h; for Inhibitory % values, MCF-7: at 50 µM
Description: as §1

[6] = test system: Fibroblast; assay: MTT cytotoxicity, fibroblast; details: 100 µM, 48 h
Description: as §1

| Molecule | Inhibitory % values, A2780 [1] | Inhibitory % values, OVCAR3 [2] | Inhibitory % values, HT-1080 [3] | Inhibitory % values, SKOV-3 [4] | Inhibitory % values, MCF-7 [5] | Inhibitory % values, Fibroblast [6] | inhibition at 100 µM ([3]; Homo sapiens, HT-1080, 100 µM, read-out: Inhibitory % values, HT-1080) | inhibition at 100 µM ([4]; Homo sapiens, SK-OV-3, 100 µM, read-out: Inhibitory % values, SKOV-3) | inhibition at 5 µM ([1]; Homo sapiens, A2780, at 5 µM (positive control), read-out: Inhibitory % values, A2780) | inhibition at 5 µM ([2]; Homo sapiens, OVCAR-3, at 5 µM (positive control), read-out: Inhibitory % values, OVCAR3) | inhibition at 5 µM ([3]; Homo sapiens, HT-1080, at 5 µM (positive control), read-out: Inhibitory % values, HT-1080) | inhibition at 5 µM ([4]; Homo sapiens, SK-OV-3, at 5 µM (positive control), read-out: Inhibitory % values, SKOV-3) | inhibition at 5 µM ([5]; Homo sapiens, MCF7, at 5 µM (positive control), read-out: Inhibitory % values, MCF-7) |
| --- | --- | --- | --- | --- | --- | --- | --- | --- | --- | --- | --- | --- | --- |
| Asparagine-Glycine-Arginine [NGR] | 6 ± 1.5% | No inhibition | 6.5 ± 0.5% | No inhibition | No inhibition | No inhibition | – | – | – | – | – | – | – |
| Arginine-Glycine-Aspartic acid [RGD] | 10 ± 2.2% | No inhibition | No inhibition | 9.5 ± 0.5% | No inhibition | No inhibition | – | – | – | – | – | – | – |
| CC(C(=O)O)c1cccc(C(=O)c2ccccc2)c1 (stereo not shown) [Ketoprofen] | No inhibition | No inhibition | – | – | – | No inhibition | 9.25 ± 1.3% | 14 ± 4.7% | – | – | – | – | – |
| COc1cccc2c1C(=O)c1c(O)c3c(c(O)c1C2=O)C[C@@](O)(C(=O)CO)C[C@@H]3O[C@H]1C[C@H](N)[C@H](O)[C@H](C)O1 [Doxorubicin, reference compound] | – | – | – | – | – | – | – | – | 65 ± 1.2% | 45.2 ± 1.25% | 26.7 ± 4.8% | 29.5 ± 2.5% | 38 ± 0.53% |
